Measurements reported in patent publication US8846928B2 (Portola Pharmaceuticals, Inc., priority 2010, dated 2014).

Molecular target: T1, full length active recombinant SYK enzyme (Homo sapiens, UniProt P43405)
T1 construct: full length active recombinant SYK enzyme (Millipore, Calif.); purchased Millipore
Experiment: Inhibition of Syk tyrosine phosphorylation activity (LANCE TR-FRET kinase assay)
Type: biochemical

SMILES | IC50
Cn1ccc2cc(Nc3nc(N[C@@H]4CCCC(F)(F)[C@@H]4N)c(F)cc3C(N)=O)ccc21 [Example 331, 6-((1R,2R)-2-amino-3,3-difluorocyclohexylamino)-5-fluoro-2-(1-methyl-1H-indol-5-ylamino)nicotinamide] | 10 to 100 nM
Cc1cncc(Nc2nc(N[C@@H]3CCCC(F)(F)[C@@H]3N)c(F)cc2C(N)=O)c1 [Example 332, 6-((1R,2R)-2-amino-3,3-difluorocyclohexylamino)-5-fluoro-2-(5-methylpyridin-3-ylamino)nicotinamide] | 100 to 1000 nM
Cc1cc(Nc2nc(N[C@@H]3CCCC(F)(F)[C@@H]3N)c(F)cc2C(N)=O)sn1 [Example 333, 6-((1R,2R)-2-amino-3,3-difluorocyclohexylamino)-5-fluoro-2-(3-methylisothiazol-5-ylamino)nicotinamide] | 100 to 1000 nM
Cc1ccc(Nc2nc(N[C@@H]3CCCC(F)(F)[C@@H]3N)c(F)cc2C(N)=O)cc1 [Example 334, 6-((1R,2R)-2-amino-3,3-difluorocyclohexylamino)-5-fluoro-2-(p-tolylamino)nicotinamide] | 100 to 1000 nM
Cc1cccc(Nc2nc(N[C@@H]3CCCC(F)(F)[C@@H]3N)c(F)cc2C(N)=O)c1 [Example 335, 6-((1R,2R)-2-amino-3,3-difluorocyclohexylamino)-5-fluoro-2-(m-tolylamino)nicotinamide] | 10 to 100 nM
NC(=O)c1cc(F)c(N[C@@H]2CCCC(F)(F)[C@@H]2N)nc1Nc1cccc(Cl)c1 [Example 336, 6-((1R,2R)-2-amino-3,3-difluorocyclohexylamino)-2-(3-chlorophenylamino)-5-fluoronicotinamide] | 100 to 1000 nM
NC(=O)c1cc(F)c(N[C@@H]2CCCC(F)(F)[C@@H]2N)nc1Nc1cc(F)cc(F)c1 [Example 337, 6-((1R,2R)-2-amino-3,3-difluorocyclohexylamino)-2-(3,5-difluorophenylamino)-5-fluoronicotinamide] | 100 to 1000 nM
COc1cc(F)cc(Nc2nc(N[C@@H]3CCCC(F)(F)[C@@H]3N)c(F)cc2C(N)=O)c1 [Example 338, 6-((1R,2R)-2-amino-3,3-difluorocyclohexylamino)-5-fluoro-2-(3-fluoro-5-methoxyphenylamino)nicotinamide] | 100 to 1000 nM
Cc1cc(F)cc(Nc2nc(N[C@@H]3CCCC(F)(F)[C@@H]3N)c(F)cc2C(N)=O)c1 [Example 339, 6-((1R,2R)-2-amino-3,3-difluorocyclohexylamino)-5-fluoro-2-(3-fluoro-5-methylphenylamino)nicotinamide] | 10 to 100 nM
NC(=O)c1cc(F)c(N[C@H]2[C@@H](N)CCCC2(F)F)nc1Nc1cccc(-n2nccn2)c1 [Example 340] | 1 to 10 nM
NC(=O)c1cc(F)c(N[C@H]2[C@@H](N)CCCC2(F)F)nc1Nc1cccc(-n2cccn2)c1 [Example 341, 2-(3-(1H-pyrazol-1-yl)phenylamino)-6-((1S,6S)-6-amino-2,2-difluorocyclohexylamino)-5-fluoronicotinamide] | 1 to 10 nM
NC(=O)c1cc(F)c(N[C@H]2[C@@H](N)CCCC2(F)F)nc1Nc1cccc(-c2ncccn2)c1 [Example 342, 6-((1S,6S)-6-amino-2,2-difluorocyclohexylamino)-5-fluoro-2-(3-(pyrimidin-2-yl)phenylamino)nicotinamide] | 10 to 100 nM
NC(=O)c1cc(F)c(N[C@H]2[C@@H](N)CCCC2(F)F)nc1Nc1ccc2ncccc2c1 [Example 343, 6-((1S,6S)-6-amino-2,2-difluorocyclohexylamino)-5-fluoro-2-(quinolin-6-ylamino)nicotinamide] | 1 to 10 nM
NC(=O)c1cc(F)c(N[C@H]2[C@@H](N)CCCC2(F)F)nc1Nc1cnc2ccccc2c1 [Example 344, 6-((1S,6S)-6-amino-2,2-difluorocyclohexylamino)-5-fluoro-2-(quinolin-3-ylamino)nicotinamide] | 1 to 10 nM
NC(=O)c1cc(F)c(N[C@H]2[C@@H](N)CCCC2(F)F)nc1Nc1ccc2ncsc2c1 [Example 345, 6-((1S,6S)-6-amino-2,2-difluorocyclohexylamino)-2-(benzo[d]thiazol-6-ylamino)-5-fluoronicotinamide] | 1 to 10 nM
Cc1ccc(Nc2nc(N[C@H]3[C@@H](N)CCCC3(F)F)c(F)cc2C(N)=O)cc1 [Example 346] | 10 to 100 nM
NC(=O)c1cc(F)c(N[C@H]2[C@@H](N)CCCC2(F)F)nc1Nc1cccnc1 [Example 347, 6-((1S,6S)-6-amino-2,2-difluorocyclohexylamino)-5-fluoro-2-(pyridin-3-ylamino)nicotinamide] | 10 to 100 nM
NC(=O)c1cc(F)c(N[C@H]2[C@@H](N)CCCC2(F)F)nc1Nc1cncc(F)c1 [Example 348] | 10 to 100 nM
Cc1ccc(Nc2nc(N[C@@H]3CCOC[C@@H]3N)c(F)cc2C(N)=O)cc1 [Example 349, 6-((3R,4R)-3-aminotetrahydro-2H-pyran-4-ylamino)-5-fluoro-2-(p-tolylamino)nicotinamide] | 10 to 100 nM
NC(=O)c1cc(F)c(N[C@@H]2CCNC2)nc1Nc1ccc2ncccc2c1 [Example 351, (R)-5-fluoro-6-(pyrrolidin-3-ylamino)-2-(quinolin-6-ylamino)nicotinamide] | 10 to 100 nM

SMILES | IC50
CC[C@H](Nc1nc(Nc2cccc(C)c2)c(C(N)=O)cc1F)C1(N)CC1 [Example 369, (S)-6-(1-(1-aminocyclopropyl)propylamino)-5-fluoro-2-(m-tolylamino)nicotinamide] | 100 to 1000 nM
CC[C@H](Nc1nc(Nc2ccc(C)cc2)c(C(N)=O)cc1F)C1(N)CC1 [Example 370, (S)-6-(1-(1-aminocyclopropyl)propylamino)-5-fluoro-2-(p-tolylamino)nicotinamide] | > 1000 nM
CC[C@H](Nc1nc(Nc2cccnc2)c(C(N)=O)cc1F)C1(N)CC1 [Example 371, (S)-6-(1-(1-aminocyclopropyl)propylamino)-5-fluoro-2-(pyridin-3-ylamino)nicotinamide] | > 1000 nM
CC[C@@H](Nc1nc(Nc2cncc(F)c2)c(C(N)=O)cc1F)C1(N)CC1 [Example 373, (R)-6-(1-(1-aminocyclopropyl)propylamino)-5-fluoro-2-(5-fluoropyridin-3-ylamino)nicotinamide] | 10 to 100 nM
NC(=O)c1cc(F)c(NC2(C(N)=O)CCCC2)nc1Nc1cnc2ccccc2c1 [Example 376, 6-(1-carbamoylcyclopentylamino)-5-fluoro-2-(quinolin-3-ylamino)nicotinamide] | 100 to 1000 nM
NC(=O)c1cc(F)c(NC(CC(F)(F)F)C(N)=O)nc1Nc1cnc2ccccc2c1 (stereo not drawn) [Example 377, 6-(1-amino-4,4,4-trifluoro-1-oxobutan-2-ylamino)-5-fluoro-2-(quinolin-3-ylamino)nicotinamide] | 10 to 100 nM
NC(=O)c1cc(F)c(NC2(C(N)=O)CCCCC2)nc1Nc1cnc2ccccc2c1 [Example 378, 6-(1-carbamoylcyclohexylamino)-5-fluoro-2-(quinolin-3-ylamino)nicotinamide] | > 1000 nM
NC(=O)c1cc(F)c(NC2(C(N)=O)CCC2)nc1Nc1cnc2ccccc2c1 [Example 379, 6-(1-carbamoylcyclobutylamino)-5-fluoro-2-(quinolin-3-ylamino)nicotinamide] | 100 to 1000 nM
Cc1cccc(Nc2nc(NC[C@@H](N)CC(F)F)c(F)cc2C(N)=O)c1 [Example 380, (S)-2-(m-toluidino)-6-(2-amino-4,4-difluorobutylamino)-5-fluoronicotinamide] | 10 to 100 nM
Cc1ccc(Nc2nc(NC[C@@H](N)CC(F)F)c(F)cc2C(N)=O)cc1 [Example 381, (S)-2-(p-toluidino)-6-(2-amino-4,4-difluorobutylamino)-5-fluoronicotinamide] | 100 to 1000 nM
NC(=O)c1cc(F)c(NC[C@@H](N)CC(F)F)nc1Nc1cncc(F)c1 [Example 382, (S)-6-(2-amino-4,4-difluorobutylamino)-5-fluoro-2-(5-fluoropyridin-3-ylamino)nicotinamide] | 100 to 1000 nM
NC(=O)c1ccc(N[C@@H]2CCNC2)nc1Nc1ccc2ncccc2c1 [Example 383, (R)-6-(pyrrolidin-3-ylamino)-2-(quinolin-6-ylamino)nicotinamide] | > 1000 nM
NC(=O)c1cc(F)c(N[C@@H]2CCOC[C@@H]2N)nc1Nc1ccc2ncsc2c1 [Example 384, 6-((3R,4R)-3-aminotetrahydro-2H-pyran-4-ylamino)-2-(benzo[d]thiazol-6-ylamino)-5-fluoronicotinamide] | 1 to 10 nM
Cc1cccc(Nc2nc(N[C@@H]3CCOC[C@@H]3N)c(F)cc2C(N)=O)c1 [Example 385, 6-((3R,4R)-3-aminotetrahydro-2H-pyran-4-ylamino)-5-fluoro-2-(m-tolylamino)nicotinamide] | 1 to 10 nM
NC(=O)c1cc(F)c(N[C@@H]2CCOC[C@@H]2N)nc1Nc1cccc(Cl)c1 [Example 386, 6-((3R,4R)-3-aminotetrahydro-2H-pyran-4-ylamino)-2-(3-chlorophenylamino)-5-fluoronicotinamide] | 1 to 10 nM
Cn1ncc2c(Nc3nc(N[C@@H]4CCCC(F)(F)[C@@H]4N)c(F)cc3C(N)=O)cccc21 [Example 387, 6-((1R,2R)-2-amino-3,3-difluorocyclohexylamino)-5-fluoro-2-(1-methyl-1H-indazol-4-ylamino)nicotinamide] | 100 to 1000 nM
NC(=O)c1cc(F)c(N[C@H]2[C@@H](N)CCCC2(F)F)nc1Nc1cccc(Cl)c1 [Example 388, 6-((1S,6S)-6-amino-2,2-difluorocyclohexylamino)-2-(3-chlorophenylamino)-5-fluoronicotinamide] | 1 to 10 nM
Cn1ncc2c(Nc3nc(N[C@H]4[C@@H](N)CCCC4(F)F)c(F)cc3C(N)=O)cccc21 [Example 389, 6-((1S,6S)-6-amino-2,2-difluorocyclohexylamino)-5-fluoro-2-(1-methyl-1H-indazol-4-ylamino)nicotinamide] | 1 to 10 nM
CCn1ccc2c(Nc3nc(N[C@@H]4CCCC(F)(F)[C@@H]4N)c(F)cc3C(N)=O)cccc21 [Example 390, 6-((1R,2R)-2-amino-3,3-difluorocyclohexylamino)-2-(1-ethyl-1H-indol-4-ylamino)-5-fluoronicotinamide] | 10 to 100 nM
